Data as given in the SangsterLogP compilation.

Test: method code SF-HPLC, from DOI: 10.1021/jm4016729, PMID: 24422550
Settings: pH 7.4

## O=C(NC1C2CC3CC1CC(O)(C3)C2)c1sc(C2CCCO2)nc1C1CC1 (configuration not stated)
  logD: 2.4

## Cc1nc(C2=COC2)c(C(=O)NC2C3CC4CC2C(O)(C4)C3)s1 (configuration not stated)
  logD: 1.5
